Literature values as cited in patent US8791152B2, “Stable pharmaceutical composition containing docetaxel and a method of manufacturing the same” (SK Chemicals Co., Ltd., priority 2006, dated 2014).

Solubility in water: almost insoluble in water
Structure (SMILES): CC(=O)O[C@@]12CO[C@@H]1C[C@H](O)[C@@]1(C)C(=O)[C@H](O)C3=C(C)[C@@H](OC(=O)[C@H](O)[C@@H](NC(=O)OC(C)(C)C)c4ccccc4)C[C@@](O)([C@@H](OC(=O)c4ccccc4)[C@H]21)C3(C)C [Docetaxel, docetaxel]
